This note sets out measurements from ChEMBL document CHEMBL5728513, “Substituted isoindolin-1-ones and 2,3-dihydro-1h-pyrrolo[3,4-c]pyridin-1-ones as hpk1 antagonists” (2021).

The target in this test is Mitogen-activated protein kinase kinase kinase kinase 1 (Homo sapiens, UniProt Q92918). Put plainly: Biochemical Enzyme Assay: HPK1 biochemical enzyme assay: HPK1 enzyme inhibition was measured using a microfluidic mobility shift assay. […] Test compounds were titrated in ten point curves (top final assay concentration […]), and preincubated with enzyme/substrate mix for 30 min prior to initiation of the reaction by addition of ATP (1 mM final concentration) and substrate (1 Î¼M final concentration; Carna Biosciences) diluted in assay buffer supplemented by MgCl2 (final assay concentration of 5 mM). Following 60 min incubation at RT, the reaction was terminated by addition of 60 µl/well termination buffer (Carna Biosciences) and signal determination using a Caliper EZ Reader (Perkin Elmer, UK).
Mitogen-activated protein kinase kinase kinase kinase 1, sequence (Q92918 whole entry): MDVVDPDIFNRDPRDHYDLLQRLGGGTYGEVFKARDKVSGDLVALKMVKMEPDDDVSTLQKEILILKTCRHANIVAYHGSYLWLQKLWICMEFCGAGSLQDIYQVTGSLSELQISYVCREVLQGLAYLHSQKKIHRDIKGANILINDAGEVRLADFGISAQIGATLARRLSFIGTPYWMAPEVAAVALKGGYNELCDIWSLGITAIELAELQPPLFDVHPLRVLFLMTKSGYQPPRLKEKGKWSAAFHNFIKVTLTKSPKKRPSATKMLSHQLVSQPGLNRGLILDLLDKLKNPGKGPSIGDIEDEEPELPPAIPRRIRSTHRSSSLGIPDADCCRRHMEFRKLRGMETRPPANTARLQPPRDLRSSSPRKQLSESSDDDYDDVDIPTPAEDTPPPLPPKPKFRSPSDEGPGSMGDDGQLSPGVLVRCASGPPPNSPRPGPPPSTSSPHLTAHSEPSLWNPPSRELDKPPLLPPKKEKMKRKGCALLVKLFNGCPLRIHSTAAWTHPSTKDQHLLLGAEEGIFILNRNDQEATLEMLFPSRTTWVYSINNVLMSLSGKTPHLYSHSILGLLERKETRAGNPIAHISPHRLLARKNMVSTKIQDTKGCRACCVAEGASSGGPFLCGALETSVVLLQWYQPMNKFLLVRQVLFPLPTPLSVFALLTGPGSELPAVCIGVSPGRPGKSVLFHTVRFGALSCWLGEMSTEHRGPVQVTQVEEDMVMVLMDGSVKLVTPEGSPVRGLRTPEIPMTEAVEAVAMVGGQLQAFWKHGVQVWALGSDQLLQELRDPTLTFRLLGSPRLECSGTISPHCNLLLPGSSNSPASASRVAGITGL
Broadly, the IC50 is the concentration needed to halve the response being measured. In the case of `CCN(C)Cc1nc(Nc2ccc(-c3cnc4cc(F)ccn34)c3c2C(=O)NC3)ccc1[C@@H]1CCOC1`, the IC50 was under 100 nM.

`CN(C)Cc1cc(Nc2ccc(-c3cnc4cc(F)ccn34)c3c2C(=O)NC3)ncc1C1(O)CCOCC1`: the IC50 result is “in the range around 550 nM”. For `CO[C@H]1CCC(c2ccc(Nc3ccc(-c4cnc5cc(F)ccn45)c4c3C(=O)NC4)nc2CN(C)C)C1` (stereo partly drawn), the IC50 was under 100 nM.
